Measurements as given in patent US11229618B2 (Amarin Pharmaceuticals Ireland Limited, priority 2012, dated 2022).

Assay: Phase 1 multidose pharmacokinetic study: unesterified EPA in plasma (LC-MS/MS)
Format: in vivo, human
Conditions: for Unesterified EPA in plasma, CL/F: day 28
Experimental: A study to characterize the pharmacokinetics of ethyl eicosapentaenoate in plasma and red blood cells after multiple-dose administration of IPE at 2 g per day and 4 g per day was performed in healthy adult male and female humans.
The study was a phase 1, open-label, randomized, multidose study in healthy, nonsmoking men and women aged>18 and ≤55 years with a body mass index (BMI)>18 and ≤30 kg/m′. Exclusion criteria included use within 6 weeks prior to randomization through study end of any lipid-altering medications or supplements, including statins, niacin at levels of greater than 200 mg/day, fibrates, ezetimibe, bile acid sequestrants, omega-3 fatty acid medications, and supplements or foods enriched with omega-3 fatty acids (no more than 2 servings of fish per week were permitted).
Following a 14-day screening period, subjects entered a 28-day treatment period and were randomized to one of four IPE dose regimen treatment groups as shown in FIG. 1. Group 1 received IPE 2 g daily (1000-mg capsules; twice-daily [BID] regimen); Group 2 received IPE 4 g daily (1000-mg capsules; BID regimen); Group 3 received IPE 2 g daily (1000-mg capsules; once-daily [QD] regimen); and Group 4 received IPE 2 g daily (500-mg capsules; BID regimen). Treatment was administered orally, with or following a meal in the morning and evening for BID regimens, or in the morning only for the QD regimen. Subjects then entered an 18-day post-treatment pharmacokinetic sampling period.
Fasting EPA concentrations were measured with a validated liquid chromatography with tandem mass spectrometry (LC-MS/MS) method in plasma and RBCs prior to the morning dose (days 1, 14, 26, 28) and at serial time points (1, 3, 5, 6, 8, 10, 12, 24, 48, 72, 120, 192, 312, and 432 hours) after the morning dose on day 28. After the last dose on day 28, EPA concentrations were followed for 18 days to estimate the expected long half-life of EPA. Total plasma EPA included all EPA forms (unesterified EPA and that incorporated in phospholipids, triacylglycerols, and cholesteryl esters). In RBCs, EPA was measured in the cell membrane, where EPA is mainly incorporated in phospholipids.
For total EPA in plasma and RBCs, lipids were isolated by acid/methanol/chloroform extraction followed by centrifugation and purified by isohexane and solid-phase extraction after confirmed complete lipid hydrolysis and transmethylation (acid/methanol, 50° C. overnight). For unesterified EPA in plasma, 25 μL of an inhibitor solution (0.5 g sodium fluoride, 1.0 g L-ascorbic acid, and 0.25 g 5-methylisoxazole-3-carboxylic acid per 10 mL water) was included per 1 mL plasma sample to prevent degradation and lipids were isolated by centrifugation after methanol/chloroform extraction (without hydrolysis or methylation) and further purified by protein precipitation and solid-phase extraction. Quantitation utilized linolenic acid as an internal standard and EPA as the standard for the calibration curve; for total plasma EPA, RBC EPA, and unesterified EPA, the lower limits of quantitation were 10 μg/mL, 5 μg/mL, and 50 ng/mL, respectively. EPA concentrations were measured at Charles River Laboratories Ltd (Elphinstone Research Center, Tranent, Edinburgh, Scotland, UK).
Unless otherwise specified, all reported parameters are based on baseline-subtracted concentrations (baseline is due to EPA derived from dietary sources).

[1] = about 2 g orally twice per day, human

With `CC/C=C\C/C=C\C/C=C\C/C=C\C/C=C\CCCC(=O)OCC` [IPE, all-cis eicosa-5,8,11,14,17-pentaenoic acid ethyl ester] the “Unesterified EPA in plasma, CL/F” value (Group 1: IPE 2 g/d 1 × 1000 mg BID) was 364,513 mL/hr, the “Unesterified EPA in plasma, CL/F” value (Group 2: IPE 4 g/d 2 × 1000 mg BID) was 234,329 mL/hr and the “Unesterified EPA in plasma, CL/F” value (Group 3: IPE 2 g/d 2 × 1000 mg QD) was 241,855 mL/hr. For the same compound, the “Unesterified EPA in plasma, CL/F” value (Group 4: IPE 2 g/d 2 × 500 mg BID) was 326,622 mL/hr, the “mean plasma CL/F of unesterified eicosapentaenoic acid” value (about 1 g orally twice per day, human) was “about 364,513+/−214,003 mL/h” and the “mean plasma AUC0-24h of unesterified eicosapentaenoic acid” value [1] was “about 18.4+/−4.6 μg·h/mL”. For the same compound, the “mean plasma CL/F of unesterified eicosapentaenoic acid” value [1] was “about 234,329+/−81,639 mL/h”, the “mean plasma Calm of unesterified eicosapentaenoic acid” value [1] was “about 1.06+/−0.56 μg/mL” and the “mean plasma Cmax of unesterified eicosapentaenoic acid” value [1] was “about 1.4+/−0.41 μg/mL”. The “mean plasma T1/2 of unesterified eicosapentaenoic acid” value [1] was “about 97.2+/−36.5 hours” and the “median plasma Tmax of unesterified eicosapentaenoic acid” value [1] was “about 5 hours”.
